Where two headings read alike, the source gives them in different places. Numbered stars: 1 amine (or outer) side, 2 acyl side, 3 side chain; on linkers, the order of the positions; unused ones are H or OH. Bridge positions count the residues as written; N and C are the ends. Square brackets hold non-standard residues; d marks the D form. Peptide text beside a SMILES is read from it. X12 = NC(=O)CC[C@@H](N[*:1])C(=O)C[C@@H](Cc1cnc[nH]1)C(=O)[*:2]; X13 = O=C(/C=N/OCCCCCCOC1=CC(C[*:3])=CC(C[*:2])C1)[*:1]; X3 = O=C(/C=N/OCCCCCCOc1cc(C[*:2])cc(C[*:3])c1)[*:1]; X1 = O=C(C=NOCCCCCCOc1cc(C[*:2])cc(C[*:3])c1)[*:1]; X5 = O=C(CCCCCCOc1cc(C[*:2])cc(C[*:3])c1)[*:1]; X6 = CC[C@@H](C)C(N[*:1])C(=O)[*:2]; tBuAla = CC(C)(C)C[C@H](N)C(=O)O; Cba = N[C@@H](CC1CCC1)C(=O)O; Nle = CCCC[C@H](N)C(=O)O
Molecular target: T1, rh-integrin α4β7/LPAM-1 (Homo sapiens, UniProt P13612+P26010)
T1 sequence (P13612 34-977 limits assumed): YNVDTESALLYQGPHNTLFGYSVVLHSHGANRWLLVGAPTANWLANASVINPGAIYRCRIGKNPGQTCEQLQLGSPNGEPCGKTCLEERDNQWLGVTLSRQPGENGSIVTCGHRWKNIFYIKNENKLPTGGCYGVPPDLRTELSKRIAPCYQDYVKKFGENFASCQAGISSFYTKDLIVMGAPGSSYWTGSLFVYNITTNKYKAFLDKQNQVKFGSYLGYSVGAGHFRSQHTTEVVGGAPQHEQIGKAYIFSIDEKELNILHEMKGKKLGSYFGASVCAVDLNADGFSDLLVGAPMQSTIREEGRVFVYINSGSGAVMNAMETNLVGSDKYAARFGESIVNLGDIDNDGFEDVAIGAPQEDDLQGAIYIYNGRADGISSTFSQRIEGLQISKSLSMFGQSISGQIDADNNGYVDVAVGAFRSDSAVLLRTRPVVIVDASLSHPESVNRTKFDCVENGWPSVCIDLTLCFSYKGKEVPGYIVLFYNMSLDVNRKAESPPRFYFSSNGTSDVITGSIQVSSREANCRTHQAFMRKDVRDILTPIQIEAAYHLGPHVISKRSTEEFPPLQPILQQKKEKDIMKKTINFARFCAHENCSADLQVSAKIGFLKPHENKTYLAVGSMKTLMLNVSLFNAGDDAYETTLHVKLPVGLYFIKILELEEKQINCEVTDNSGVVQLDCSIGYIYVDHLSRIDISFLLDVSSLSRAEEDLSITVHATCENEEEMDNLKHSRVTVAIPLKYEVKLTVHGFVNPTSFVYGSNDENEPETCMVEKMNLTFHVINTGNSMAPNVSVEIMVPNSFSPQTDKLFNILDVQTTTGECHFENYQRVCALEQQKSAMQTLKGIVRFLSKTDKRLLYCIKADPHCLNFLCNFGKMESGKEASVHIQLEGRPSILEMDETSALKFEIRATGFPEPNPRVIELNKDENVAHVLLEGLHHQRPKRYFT
T1 sequence (P26010 20-723 limits assumed): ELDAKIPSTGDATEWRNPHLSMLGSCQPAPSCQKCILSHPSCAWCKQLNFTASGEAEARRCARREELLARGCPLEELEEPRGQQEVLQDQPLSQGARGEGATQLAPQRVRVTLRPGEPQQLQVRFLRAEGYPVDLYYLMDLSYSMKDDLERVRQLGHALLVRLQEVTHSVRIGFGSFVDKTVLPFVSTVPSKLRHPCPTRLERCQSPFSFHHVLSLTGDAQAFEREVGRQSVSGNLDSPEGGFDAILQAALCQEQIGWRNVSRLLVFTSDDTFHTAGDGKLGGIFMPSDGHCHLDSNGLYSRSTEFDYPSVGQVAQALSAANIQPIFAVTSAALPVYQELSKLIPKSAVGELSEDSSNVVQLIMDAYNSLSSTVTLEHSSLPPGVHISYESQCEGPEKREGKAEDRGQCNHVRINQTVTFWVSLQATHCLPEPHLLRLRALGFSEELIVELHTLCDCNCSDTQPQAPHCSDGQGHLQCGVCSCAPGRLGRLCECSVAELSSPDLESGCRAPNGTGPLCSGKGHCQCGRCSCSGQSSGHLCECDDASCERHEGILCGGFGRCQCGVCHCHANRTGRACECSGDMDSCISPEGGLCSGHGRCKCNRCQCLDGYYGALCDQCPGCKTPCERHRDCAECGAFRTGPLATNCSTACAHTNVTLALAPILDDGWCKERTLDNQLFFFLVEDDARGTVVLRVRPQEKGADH
Assay: α4β7-MadCAM Competition ELISA (Example 4)
Assay type: binding
Conditions: read-out: IC50
Procedure: After washing with wash buffer, 200 μL assay buffer was added to each well and incubated for one hour at 28° C. After another wash with wash buffer, 100 μL of a MAdCAM and peptide mixture in assay buffer was added to each well and incubated for one hour at 28° C., followed by washing with wash buffer.

[1] = Table 3 Representative compounds, inhibition of MAdCAM binding to coated α4β7

| SMILES | IC50 [1] [µM] | IC50 (competition ELISA, 4 μg/mL α4β7 coated, MAdCAM and peptide mixture, 28° C.) [µM] |
| --- | --- | --- |
| CCCC[C@@H]1NC(=O)[C@@H]2CCCN2C(=O)[C@@H]2CSCc3cc(cc(c3)OCCCCCCO/N=C/C(=O)N[C@@H](CCCNC(=N)N)C(=O)N2)CSC[C@@H](C(N)=O)NC(=O)[C@H](CCC(=O)O)NC(=O)CNC(=O)[C@H](C)NC(=O)[C@H](C(C)C)NC(=O)[C@H](CC(=O)O)NC1=O [compound 15] (RCP[Nle]DVAGEC-NH2; linker N-2-10 via X3) | 0.261 |  |
| CCCC[C@@H]1NC(=O)[C@@H]2CCCN2C(=O)[C@@H]2CSCc3cc(cc(c3)OCCCCCCC(=O)NCC(=O)N[C@@H](CCCCN)C(=O)N2)CSC[C@@H](C(N)=O)NC(=O)[C@H](CCC(=O)O)NC(=O)[C@H](CCC(N)=O)NC(=O)[C@H](Cc2c[nH]c3ccccc23)NC(=O)[C@H](CC2CCC2)NC(=O)[C@H](CC(=O)O)NC1=O [compound 45, TSLC7-GKCP{Nle}D {CbA}WQEC] (GKCP[Nle]D[Cba]WQEC-NH2; linker N-3-11 via X5) | 1.61 |  |
| CC(C)[C@@H]1NC(=O)[C@H](CC(=O)O)NC(=O)[C@H](CC(C)(C)C)NC(=O)[C@@H]2CCCN2C(=O)[C@@H]2CSCc3cc(cc(c3)OCCCCCCO/N=C/C(=O)N[C@@H](CCCNC(=N)N)C(=O)N2)CSC[C@@H](C(N)=O)NC(=O)[C@H](CCC(=O)O)NC(=O)CNC(=O)[C@H](Cc2c[nH]c3ccccc23)NC1=O [compound 58, TSL6- SRCP{tBuAla} DVWGEC] (RCP[tBuAla]DVWGEC-NH2; linker N-2-10 via X3) | 4.01 |  |
| CC(=O)N[C@H]1CSSC[C@@H](C(=O)NCC(=O)N[C@@H](CCC(=O)O)C(N)=O)NC(=O)[C@H](CC(C)C)NC(=O)[C@H]([C@@H](C)O)NC(=O)[C@H](CC(=O)O)NC(=O)[C@H](CO)NC(=O)[C@H](CCCNC(=N)N)NC1=O [compound 7] (Ac-CRSDTLCGE-NH2; disulfide 1-7) | 0.136 |  |
| CC(C)C[C@@H]1NC(=O)[C@@H]2CCCN2C(=O)[C@H](Cc2c[nH]c3ccccc23)NC(=O)[C@@H]2CCCN2C(=O)[C@@H]2CSCc3cc(cc(c3)OCCCCCCO/N=C/C(=O)N[C@@H](CCC(=O)O)C(=O)N2)CSC[C@@H](C(N)=O)NC(=O)[C@H](CCC(N)=O)NC(=O)[C@@H]2CCCN2C1=O [compound 105, TSL6- SECPWPLPQC] (ECPWPLPQC-NH2; linker N-2-9 via X3) | 341 |  |
| CC[C@@H](C)C1NC(=O)[C@H](Cc2ccc(O)cc2)NC(=O)[C@H](CCCNC(=N)N)NC(=O)[C@H](CCC(=O)O)NC(=O)[C@H](C)NC(=O)[C@H](CC(=O)O)NC(=O)[C@@H]2CCCN2C(=O)[C@@H]2CSCc3cc(cc(c3)OCCCCCCO/N=C/C(=O)N[C@@H](CO)C(=O)N2)CSC[C@@H](C(N)=O)NC1=O (stereo partly drawn) [compound 44, TSL6- SDCPDAERYIC] (SCPDAERY[X6]C-NH2; linker N-2-10 via X3) | 1.46 |  |
| C[C@@H]1NC(=O)/C=N/OCCCCCCOC2=CC3=CC(CSC[C@H](NC1=O)C(=O)N[C@@H](C)C(=O)N[C@@H](Cc1c[nH]c4ccccc14)C(=O)N[C@@H](Cc1cnc[nH]1)C(=O)N[C@H](CCC(N)=O)C(=O)C[C@@H](Cc1cnc[nH]1)C(=O)N[C@@H](C)C(=O)N[C@H](C(N)=O)CSC3)C2 [compound 57, TSL6- SACAWHQHAC] (ACAWH[X12]AC-NH2; linker N-2-8 via X13) | 3.89 |  |
| CC(C)C[C@@H]1NC(=O)[C@@H]2CCCN2C(=O)[C@@H]2CSCc3cc(cc(c3)OCCCCCCO/N=C/C(=O)N[C@@H](CCCCN)C(=O)N2)CSC[C@@H](C(N)=O)NC(=O)[C@H](CO)NC(=O)[C@@H]2CCCN2C(=O)[C@H](C(C)C)NC(=O)[C@H](C)NC1=O [compound 81, TSL6- SKCPLAVPSC] (KCPLAVPSC-NH2; linker N-2-9 via X3) | 55.9 |  |
| CCCC[C@@H]1NC(=O)[C@H](CO)NC(=O)[C@@H]2CSSC[C@@H](C(=O)N[C@@H](Cc3c[nH]c4ccccc34)C(=O)N[C@@H](CCC(N)=O)C(N)=O)NC(=O)[C@H](CC(C)C)NC(=O)[C@@H](CC(=O)O)NC(=O)[C@H](CCCC)NC(=O)[C@H](CO)NC(=O)[C@H](CCCNC(=N)N)NC(=O)[C@H](CSCC(=O)N[C@@H](CCCNC(=N)N)C(=O)N2)NC(=O)[C@H](CC(C)C)NC(=O)[C@H](CC(=O)O)NC1=O [compound 103, Disulfide- RCS{Nle}DICRS NleDICWQ] ({CH2CO}-RCS[Nle]DLCRS[Nle][dD]LCWQ-NH2; disulfide 2-13; thioether N-7) | 263 |  |
| C[C@@H](O)[C@@H]1NC(=O)[C@H](CC(=O)O)NC(=O)[C@@H]2CCCN2C(=O)[C@H](Cc2ccc(O)cc2)NC(=O)[C@@H]2CSCc3cc(cc(c3)OCCCCCCO/N=C/C(=O)N[C@@H](CCC(=O)O)C(=O)N2)CSC[C@@H](C(N)=O)NC(=O)[C@H](Cc2cnc[nH]2)NC(=O)[C@H](Cc2ccc(O)cc2)NC1=O [compound 71, TSL6- SECYPDTYHC] (ECYPDTYHC-NH2; linker N-2-9 via X3) | 20.2 |  |
| CC(C)C[C@@H]1NC(=O)[C@H](Cc2ccccc2)NC(=O)[C@@H]2CSCc3cc(cc(c3)OCCCCCCO/N=C/C(=O)N[C@@H]([C@@H](C)O)C(=O)N2)CSC[C@@H](C(N)=O)NC(=O)[C@H](CC(N)=O)NC(=O)[C@H](CCCCN)NC(=O)[C@H](C(C)C)NC(=O)[C@H](CC(=O)O)NC1=O [compound 104, TSL6- STCFLDVKNC] (TCFLDVKNC-NH2; linker N-2-9 via X3) | 311 |  |
| CSCC[C@@H]1NC(=O)[C@@H]2CSCc3cc(cc(c3)OCCCCCCO/N=C/C(=O)NCC(=O)N2)CSC[C@@H](C(N)=O)NC(=O)[C@H](Cc2ccccc2)NC(=O)[C@H](C)NC(=O)[C@H](Cc2ccccc2)NC(=O)[C@H](CC(=O)O)NC(=O)[C@H](CC(=O)O)NC1=O [compound 82, TSL6- SGCMDDFAFC] (GCMDDFAFC-NH2; linker N-2-9 via X3) | 59.1 |  |
| CC(C)[C@@H]1NC(=O)[C@H](CC(=O)O)NC(=O)[C@H](CC(C)(C)C)NC(=O)[C@@H]2CCCN2C(=O)[C@@H]2CSCc3cc(cc(c3)OCCCCCCO/N=C/C(=O)N[C@@H](CCCNC(=N)N)C(=O)N2)CSC[C@@H](C(N)=O)NC(=O)[C@H](CCC(=O)O)NC(=O)[C@H](CCC(N)=O)NC(=O)[C@@H]2CCCN2C1=O [compound 30, TSL6- SRCP{tBuAla} DVPQEC] (RCP[tBuAla]DVPQEC-NH2; linker N-2-10 via X3) | 0.69 |  |
| CC[C@H](C)[C@@H]1NC(=O)[C@H](CC(=O)O)NC(=O)[C@H](CCSC)NC(=O)[C@@H]2CCCN2C(=O)C(NC(=O)[C@H](CCCNC(=N)N)NC(=O)[C@H](CO)NC(C)=O)CSSC[C@@H](C(=O)N[C@@H](CCCCNC(=O)COCC(=O)NCCCC[C@H](NC(=O)[C@@H]2CSSC[C@H](NC(=O)[C@H](CCCNC(=N)N)NC(=O)[C@H](CO)NC(C)=O)C(=O)N3CCC[C@H]3C(=O)N[C@@H](CCSC)C(=O)N[C@@H](CC(=O)O)C(=O)N[C@@H]([C@@H](C)CC)C(=O)N[C@@H](C)C(=O)NCC(=O)N[C@@H](CCC(=O)O)C(=O)N2)C(N)=O)C(N)=O)NC(=O)[C@H](CCC(=O)O)NC(=O)CNC(=O)[C@H](C)NC1=O (stereo in doubt) [compound 32] | 0.729 |  |
| CC[C@H](C)[C@@H]1NC(=O)[C@H](C)NC(=O)[C@H](CCSC)NC(=O)[C@@H]2CCCN2C(=O)[C@@H]2CSCc3cc(cc(c3)OCCCCCCON=CC(=O)N[C@@H](CCC(N)=O)C(=O)N2)CSC[C@@H](C(=O)O)NC(=O)[C@H]([C@@H](C)O)NC(=O)[C@@H]2CCCN2C1=O [SEQ ID NO: 49] (QCPMAIPTC-OH; linker N-2-9 via X1) |  | > 500 |
